Data on six compounds can be found in ChEMBL document CHEMBL1201862, “PubChem BioAssay data set” (2004).

Type in all cases: functional
The target in experiment [1] is T1, Sentrin-specific protease 8 (Homo sapiens, UniProt Q96LD8).
T1 sequence (Q96LD8 whole entry): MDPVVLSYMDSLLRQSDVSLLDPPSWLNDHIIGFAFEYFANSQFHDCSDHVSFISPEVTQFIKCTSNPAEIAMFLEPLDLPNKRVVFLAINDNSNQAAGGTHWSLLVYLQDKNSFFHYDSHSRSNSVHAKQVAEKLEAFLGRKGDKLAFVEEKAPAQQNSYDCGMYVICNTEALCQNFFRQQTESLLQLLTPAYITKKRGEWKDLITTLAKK
Put plainly: inhibition of sentrin protease 8 – biochemical, luminescence, set 2, SAR follow-up (AID 588601).

Experiment [2] deals with T2, Sentrin-specific protease 6 (Homo sapiens, UniProt Q9GZR1).
T2 sequence (Q9GZR1 whole entry): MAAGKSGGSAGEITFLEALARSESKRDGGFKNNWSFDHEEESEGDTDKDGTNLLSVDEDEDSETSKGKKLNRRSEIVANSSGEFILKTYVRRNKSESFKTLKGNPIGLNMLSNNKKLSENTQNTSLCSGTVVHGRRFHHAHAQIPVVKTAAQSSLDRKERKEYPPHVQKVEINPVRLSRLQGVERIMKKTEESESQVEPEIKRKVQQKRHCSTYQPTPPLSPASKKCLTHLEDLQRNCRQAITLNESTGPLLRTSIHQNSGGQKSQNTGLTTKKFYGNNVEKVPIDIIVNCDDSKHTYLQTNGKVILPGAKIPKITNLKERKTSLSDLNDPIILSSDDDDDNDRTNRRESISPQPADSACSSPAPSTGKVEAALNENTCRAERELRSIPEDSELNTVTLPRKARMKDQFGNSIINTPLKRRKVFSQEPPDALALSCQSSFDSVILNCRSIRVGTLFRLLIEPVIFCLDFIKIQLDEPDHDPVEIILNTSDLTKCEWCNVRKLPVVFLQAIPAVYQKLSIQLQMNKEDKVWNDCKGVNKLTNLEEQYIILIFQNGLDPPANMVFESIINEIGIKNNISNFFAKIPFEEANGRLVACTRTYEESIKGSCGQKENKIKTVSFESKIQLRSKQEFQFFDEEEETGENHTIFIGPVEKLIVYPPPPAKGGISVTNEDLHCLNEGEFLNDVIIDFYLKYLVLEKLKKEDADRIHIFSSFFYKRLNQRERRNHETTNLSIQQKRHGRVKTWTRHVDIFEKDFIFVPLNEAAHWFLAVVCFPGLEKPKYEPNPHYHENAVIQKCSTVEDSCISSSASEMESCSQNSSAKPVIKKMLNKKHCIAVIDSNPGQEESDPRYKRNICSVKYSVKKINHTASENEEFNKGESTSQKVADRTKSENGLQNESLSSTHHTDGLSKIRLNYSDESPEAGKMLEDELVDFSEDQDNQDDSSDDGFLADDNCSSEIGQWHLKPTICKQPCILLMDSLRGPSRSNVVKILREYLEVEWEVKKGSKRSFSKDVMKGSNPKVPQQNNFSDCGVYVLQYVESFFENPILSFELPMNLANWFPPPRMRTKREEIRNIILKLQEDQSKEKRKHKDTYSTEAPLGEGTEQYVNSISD
Put plainly: inhibition of human SENP6 catalytic domain – biochemical, luminescence, set 2, SAR follow-up (AID 588598).

Experiment [3] deals with T3, Sentrin-specific protease 7 (Homo sapiens, UniProt Q9BQF6).
T3 sequence (Q9BQF6 whole entry): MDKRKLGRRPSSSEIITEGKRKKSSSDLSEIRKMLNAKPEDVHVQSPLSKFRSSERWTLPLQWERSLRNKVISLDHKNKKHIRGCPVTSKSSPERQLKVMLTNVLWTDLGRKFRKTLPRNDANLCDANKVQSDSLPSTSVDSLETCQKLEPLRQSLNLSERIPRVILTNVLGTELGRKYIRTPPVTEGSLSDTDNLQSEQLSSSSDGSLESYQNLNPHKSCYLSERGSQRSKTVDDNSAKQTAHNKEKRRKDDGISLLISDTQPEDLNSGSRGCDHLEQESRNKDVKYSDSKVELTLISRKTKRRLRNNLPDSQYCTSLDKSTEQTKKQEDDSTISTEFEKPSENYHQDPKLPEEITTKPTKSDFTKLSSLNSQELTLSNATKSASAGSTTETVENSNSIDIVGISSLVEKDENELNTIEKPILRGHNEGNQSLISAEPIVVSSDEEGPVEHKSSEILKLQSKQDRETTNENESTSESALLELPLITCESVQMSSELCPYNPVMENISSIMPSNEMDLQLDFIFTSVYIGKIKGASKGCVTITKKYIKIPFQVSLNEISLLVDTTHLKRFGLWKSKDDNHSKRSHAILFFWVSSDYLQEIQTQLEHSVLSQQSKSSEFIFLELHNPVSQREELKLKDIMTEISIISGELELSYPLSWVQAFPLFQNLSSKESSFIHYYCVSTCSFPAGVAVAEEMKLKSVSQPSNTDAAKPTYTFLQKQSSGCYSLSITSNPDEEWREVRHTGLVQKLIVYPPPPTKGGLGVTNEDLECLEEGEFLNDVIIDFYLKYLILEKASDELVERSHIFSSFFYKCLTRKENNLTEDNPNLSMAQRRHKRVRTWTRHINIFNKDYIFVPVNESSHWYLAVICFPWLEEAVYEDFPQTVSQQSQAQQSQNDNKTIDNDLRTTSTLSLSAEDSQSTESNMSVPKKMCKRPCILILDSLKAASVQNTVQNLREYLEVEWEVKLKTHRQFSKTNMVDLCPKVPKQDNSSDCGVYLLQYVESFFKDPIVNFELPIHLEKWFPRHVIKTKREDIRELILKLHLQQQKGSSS
The experiment can be described thus: inhibition of human SENP7 cleavage activity – biochemical, luminescence, set 2, SAR follow-up (AID 588600).

Experiment [4] deals with T1, Sentrin-specific protease 8. Put plainly: inhibition of human SENP8 cleavage activity – biochemical, luminescence, SAR follow-up (AID 504501).
Experiment [5] concerns the target T3, Sentrin-specific protease 7. The experiment can be described thus: inhibition of human SENP7 cleavage activity – biochemical, luminescence, SAR follow-up (AID 504497).
The target in experiment [6] is T4, Caspase-3 (Homo sapiens, UniProt P42574).
T4 sequence (P42574 whole entry): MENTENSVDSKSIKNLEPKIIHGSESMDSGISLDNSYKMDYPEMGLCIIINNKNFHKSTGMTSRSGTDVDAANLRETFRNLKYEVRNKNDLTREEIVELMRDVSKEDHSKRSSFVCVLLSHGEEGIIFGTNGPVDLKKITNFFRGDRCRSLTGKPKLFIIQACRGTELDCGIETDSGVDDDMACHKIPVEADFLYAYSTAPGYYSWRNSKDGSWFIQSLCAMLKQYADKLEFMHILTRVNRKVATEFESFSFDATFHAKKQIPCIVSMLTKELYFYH
The experiment can be described thus: SAR Analysis of small molecule inhibitors of Sentrin-specific proteases (SENPs) using a Caspase-3 Selectivity assay. [Related pubchem assays (depositor defined):AID2540, AID2599, AID434973, AID489001].

Experiment [7] addresses T2, Sentrin-specific protease 6. Put plainly: SAR Analysis of small molecule inhibitors of Sentrin-specific protease 6 (SENP6) using a Luminescent assay. [Related pubchem assays (depositor defined):AID2582, AID2599].
Experiment [8] addresses T4, Caspase-3. The experiment can be described thus: inhibition of recombinant caspase-3 activity – biochemical, luminescence, set 2, selectivity assay for SENP protease inhibitor project, SAR follow-up (AID 588599).
Experiment [9] concerns the target T5, Neuropeptides B/W receptor type 1 (Homo sapiens, UniProt P48145).
T5 sequence (P48145 whole entry): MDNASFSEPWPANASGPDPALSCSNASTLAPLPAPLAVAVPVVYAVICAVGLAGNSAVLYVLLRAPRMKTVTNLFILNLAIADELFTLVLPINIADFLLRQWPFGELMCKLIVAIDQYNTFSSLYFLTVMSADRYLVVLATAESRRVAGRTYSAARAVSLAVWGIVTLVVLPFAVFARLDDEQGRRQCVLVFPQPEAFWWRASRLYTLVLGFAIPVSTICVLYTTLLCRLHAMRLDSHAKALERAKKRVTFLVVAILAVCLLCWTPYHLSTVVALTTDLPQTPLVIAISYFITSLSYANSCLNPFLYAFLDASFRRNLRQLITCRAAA
The experiment can be described thus: human NPBW1 receptor blockade, IC50 – cell-based, fluorescence, dose response, set 6, late-stage follow-up (AID 588583).

Experiment [10] has as its target Melanin-concentrating hormone receptor 1 (Homo sapiens, UniProt Q99705). The experiment can be described thus: Late-stage fluorescence-based counterscreen for antagonists of the G-protein coupled receptor 7 (GPR7): cell-based dose response assay to identify antagonists of the melanin-concentrating hormone receptor 1 (MCHR1) Set 6.
Experiment [11] addresses Vascular endothelial growth factor receptor 2 (Homo sapiens, UniProt P35968).
Another experiment concerns the target Aurora kinase A (Homo sapiens, UniProt O14965).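 Also: value from the Navigating the Kinome kinase panel profiling, panel entry STK6.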
A further experiment has as its target Aurora kinase B (Homo sapiens, UniProt Q96GD4).
In experiment [12] the target is T6, Apoptotic protease-activating factor 1 (Homo sapiens, UniProt O14727).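 Also: caspase-3 cleavage of fluorogenic Rh110 DEVD substrate downstream of apoptosome activation.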
T6 sequence (O14727 whole entry): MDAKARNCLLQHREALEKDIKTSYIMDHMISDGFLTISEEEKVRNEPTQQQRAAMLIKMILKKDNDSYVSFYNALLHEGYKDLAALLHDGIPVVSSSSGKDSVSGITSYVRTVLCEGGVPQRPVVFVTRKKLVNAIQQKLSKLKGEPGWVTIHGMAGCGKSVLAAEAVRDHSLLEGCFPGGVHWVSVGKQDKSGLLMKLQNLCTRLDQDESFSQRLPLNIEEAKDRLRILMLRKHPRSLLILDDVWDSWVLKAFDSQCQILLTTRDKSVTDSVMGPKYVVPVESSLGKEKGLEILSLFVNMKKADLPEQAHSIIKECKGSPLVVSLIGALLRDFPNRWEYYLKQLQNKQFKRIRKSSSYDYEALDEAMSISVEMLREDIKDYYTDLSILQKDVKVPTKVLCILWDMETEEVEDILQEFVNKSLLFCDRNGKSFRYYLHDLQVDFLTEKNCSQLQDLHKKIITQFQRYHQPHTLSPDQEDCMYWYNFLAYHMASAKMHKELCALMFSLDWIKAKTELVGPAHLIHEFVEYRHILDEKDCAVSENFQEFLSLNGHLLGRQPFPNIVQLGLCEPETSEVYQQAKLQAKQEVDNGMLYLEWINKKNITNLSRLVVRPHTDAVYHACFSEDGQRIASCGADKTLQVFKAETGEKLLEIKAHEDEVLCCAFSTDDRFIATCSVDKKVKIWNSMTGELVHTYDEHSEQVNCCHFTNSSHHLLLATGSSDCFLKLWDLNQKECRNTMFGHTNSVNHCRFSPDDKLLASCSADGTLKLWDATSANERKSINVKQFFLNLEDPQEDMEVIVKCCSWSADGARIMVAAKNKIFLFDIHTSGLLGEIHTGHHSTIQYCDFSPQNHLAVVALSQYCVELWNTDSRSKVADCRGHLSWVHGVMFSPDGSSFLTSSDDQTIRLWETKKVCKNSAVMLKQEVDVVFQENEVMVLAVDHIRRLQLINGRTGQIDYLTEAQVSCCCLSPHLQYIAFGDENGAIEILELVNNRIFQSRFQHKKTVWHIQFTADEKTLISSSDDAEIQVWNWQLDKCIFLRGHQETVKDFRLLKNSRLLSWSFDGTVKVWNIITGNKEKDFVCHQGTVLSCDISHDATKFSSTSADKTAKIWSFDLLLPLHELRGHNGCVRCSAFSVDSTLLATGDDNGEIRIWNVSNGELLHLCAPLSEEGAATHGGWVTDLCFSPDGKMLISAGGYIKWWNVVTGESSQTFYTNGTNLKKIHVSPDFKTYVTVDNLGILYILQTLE
The experiment can be described thus: SAR analysis of small molecule Activators of Apaf-1 in a Fluorescent assay. Particulars: read-out: EC50_Mean.

Calls of active or inactive are those of the source. Rule as the data show it, for most assays here: actives have a measured IC50 and inactives only a lower limit.

Melanin-concentrating hormone receptor 1, sequence (Q99705 whole entry): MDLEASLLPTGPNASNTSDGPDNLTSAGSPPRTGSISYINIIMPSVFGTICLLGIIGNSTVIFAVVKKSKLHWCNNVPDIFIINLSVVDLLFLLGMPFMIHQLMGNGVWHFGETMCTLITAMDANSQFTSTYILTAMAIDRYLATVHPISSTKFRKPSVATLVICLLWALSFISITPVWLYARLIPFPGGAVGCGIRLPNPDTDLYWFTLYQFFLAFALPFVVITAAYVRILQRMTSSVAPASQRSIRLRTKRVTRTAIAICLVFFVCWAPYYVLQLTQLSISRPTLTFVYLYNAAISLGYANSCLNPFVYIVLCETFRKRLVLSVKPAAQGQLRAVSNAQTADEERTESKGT
Aurora kinase A, sequence (O14965 whole entry): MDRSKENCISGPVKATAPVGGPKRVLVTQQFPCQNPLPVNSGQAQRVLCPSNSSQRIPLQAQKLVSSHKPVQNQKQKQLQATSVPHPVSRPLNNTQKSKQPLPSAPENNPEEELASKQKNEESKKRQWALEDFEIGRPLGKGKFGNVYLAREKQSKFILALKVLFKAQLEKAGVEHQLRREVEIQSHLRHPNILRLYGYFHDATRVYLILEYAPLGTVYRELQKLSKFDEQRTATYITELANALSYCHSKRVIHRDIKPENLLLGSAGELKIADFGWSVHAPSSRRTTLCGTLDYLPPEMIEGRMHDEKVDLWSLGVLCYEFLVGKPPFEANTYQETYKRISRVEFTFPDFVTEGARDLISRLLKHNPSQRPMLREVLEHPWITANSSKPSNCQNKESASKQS
Vascular endothelial growth factor receptor 2, sequence (P35968 whole entry): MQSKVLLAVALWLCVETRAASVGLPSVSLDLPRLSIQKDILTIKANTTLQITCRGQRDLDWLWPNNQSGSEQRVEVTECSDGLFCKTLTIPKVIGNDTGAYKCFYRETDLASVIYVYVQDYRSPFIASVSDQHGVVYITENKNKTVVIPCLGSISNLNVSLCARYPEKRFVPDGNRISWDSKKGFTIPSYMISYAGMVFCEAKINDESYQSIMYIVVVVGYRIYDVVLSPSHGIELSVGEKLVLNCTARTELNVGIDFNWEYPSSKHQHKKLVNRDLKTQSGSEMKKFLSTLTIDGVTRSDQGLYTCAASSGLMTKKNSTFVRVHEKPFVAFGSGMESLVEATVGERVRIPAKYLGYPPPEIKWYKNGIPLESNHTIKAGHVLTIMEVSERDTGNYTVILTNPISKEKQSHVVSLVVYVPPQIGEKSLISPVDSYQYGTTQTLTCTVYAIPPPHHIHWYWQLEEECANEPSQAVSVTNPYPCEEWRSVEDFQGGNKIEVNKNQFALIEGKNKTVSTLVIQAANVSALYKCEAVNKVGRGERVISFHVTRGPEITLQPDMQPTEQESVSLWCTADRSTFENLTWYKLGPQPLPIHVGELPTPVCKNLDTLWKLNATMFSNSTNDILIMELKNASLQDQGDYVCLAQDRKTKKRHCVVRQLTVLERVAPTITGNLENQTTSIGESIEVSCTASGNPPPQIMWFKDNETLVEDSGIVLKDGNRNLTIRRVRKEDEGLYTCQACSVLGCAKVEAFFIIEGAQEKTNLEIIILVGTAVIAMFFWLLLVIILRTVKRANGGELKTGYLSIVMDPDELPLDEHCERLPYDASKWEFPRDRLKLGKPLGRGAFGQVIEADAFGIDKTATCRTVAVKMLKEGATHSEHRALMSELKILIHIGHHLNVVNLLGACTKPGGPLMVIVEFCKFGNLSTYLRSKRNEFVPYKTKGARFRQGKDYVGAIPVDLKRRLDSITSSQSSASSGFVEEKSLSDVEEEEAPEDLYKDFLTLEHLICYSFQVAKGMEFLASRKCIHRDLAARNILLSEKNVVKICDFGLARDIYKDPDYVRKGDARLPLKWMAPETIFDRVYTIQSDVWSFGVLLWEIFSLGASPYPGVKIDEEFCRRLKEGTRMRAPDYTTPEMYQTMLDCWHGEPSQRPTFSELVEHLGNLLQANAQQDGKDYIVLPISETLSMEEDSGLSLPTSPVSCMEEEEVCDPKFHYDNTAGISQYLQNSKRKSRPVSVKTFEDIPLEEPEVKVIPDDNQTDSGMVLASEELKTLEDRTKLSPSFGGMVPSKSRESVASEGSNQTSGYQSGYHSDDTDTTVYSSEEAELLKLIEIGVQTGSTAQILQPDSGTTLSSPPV
Aurora kinase B, sequence (Q96GD4 whole entry): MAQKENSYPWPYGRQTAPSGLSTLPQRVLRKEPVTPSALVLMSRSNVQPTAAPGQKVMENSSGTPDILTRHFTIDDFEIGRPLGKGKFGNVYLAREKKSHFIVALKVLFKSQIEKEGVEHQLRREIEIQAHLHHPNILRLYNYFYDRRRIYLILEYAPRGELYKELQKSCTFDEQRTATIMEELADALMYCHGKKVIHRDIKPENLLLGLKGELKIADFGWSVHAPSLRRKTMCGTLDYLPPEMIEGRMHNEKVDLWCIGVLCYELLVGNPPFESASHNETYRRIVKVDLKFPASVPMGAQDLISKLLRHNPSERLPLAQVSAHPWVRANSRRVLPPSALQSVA

As to `CCCCc1ccc2nc(NC(=O)c3ccsc3)sc2c1`, the IC50 in experiment [1] was 1.8 µM (active); in experiment [2], 1.84 µM (active); in experiment [3] it was 1.96 µM (active); in [4] it was 3.1 µM (active); in [5], 1.9 µM (active); at Caspase-3 [6] it was 6.2 µM (active). Also, the values for the IC50 (in experiment [7]; on Caspase-3 [8]) were 2.8 µM (active) and 5.28 µM (active), respectively.

As for `Cc1cccc(-c2nc(/C=C/c3ccccc3)no2)c1`, the IC50 in experiment [1] was 16.7 µM (active); in experiment [2] it was 16.7 µM (active); in experiment [3], 14.9 µM (active); in experiment [4], 48 µM (active); in experiment [5] it was 16 µM (active); on Caspase-3 [6], 52 µM (active). In addition, the values for the IC50 (in experiment [7]; on Caspase-3 [8]) were 49 µM (active) and 48.6 µM (active), respectively.

In the case of `N#CC(c1cccs1)c1c(Cl)cnn(Cc2cccc3ccccc23)c1=O` (centres undefined), the IC50 in [9] and in experiment [10] was 1.07 µM (active) in each case.

On to `Cc1ccc(-c2nc3ccc(Br)cc3c(C(=O)O)c2CC(=O)O)cc1`, for which the Ki in experiment [11] was 0.501 µM (active); on Aurora kinase A it was 0.0794 µM (active); on Aurora kinase B, 0.158 µM (active).

As for `CCOc1ccccc1NC(=O)CCS(=O)(=O)c1ccc2c(c1)oc(=O)n2C`, the EC50 in [12] was > 100 µM (inactive).

In the case of `COc1ccc(Oc2c(CO)cnn(Cc3cccc4ccccc34)c2=O)cc1`, the IC50 in experiment [9] and in experiment [10] was 2.99 µM (active) in each case.
